According to patent publication US10575485B2, “Wheat plants having increased resistance to imidazolinone herbicides” (The Department of Agriculture, Western Australia, priority 2002, dated 2020):

Columns and labels:
[1] = system: Triticum aestivum wheat lines K-42 and Br-8; test: Seed soak and spray selection of mutagenised wheat lines for imazamox tolerance; type: in vivo; conditions: M3 seed soaked in 50 ppm solution for 24 hours, subsequent plants sprayed with 50 ppm
Protocol: 840 grams of seed of the Triticum aestivuni wheat varieties Krichauff and Brookton were soaked in a sodium azide solution (0.065 g/L) to produce M1 seed. M1 plants were allowed to self pollinate to produce M2 seed. M2 seed were soaked in a 50 ppm solution of the imidazolinone herbicide imazamox for 24 hours prior to sowing in the field. Resultant plants that appeared to have normal growth eight to nine weeks after sowing were transplanted from the field to a greenhouse for M3 seed production. To confirm herbicide tolerance, M3 seed were soaked in a 50 ppm solution of imazamox for 24 hours prior to sowing, and subsequent plants were sprayed with a solution of 50 ppm of imazamox.

[2] = system: wheat plants (K-42, Br-8, K-42/Br-8, wild type Krichauff and Brookton); test: Greenhouse herbicide tolerance, injury scored on a 0-9 scale; type: in vivo, Triticum aestivum; conditions: 40 and 120 g/ha
Protocol: Tolerance of K-42 and Br-8 to the imidazolinone herbicide imazamox was evaluated at 40 and 120 g/ha in the greenhouse. Wild type Krichauff and Brookton were used as herbicide susceptible controls. 24 plants were treated at each rate at the 2-3 leaf stage. Injury was scored on a 0-9 scale, 0 representing no injury and 9 representing plant death. FIG. 4 summarizes the data collected 14 and 21 days after treatment. In Example 1, reference was made to crosses between K-42, containing a mutation in Als3 conferring imidazolinone herbicide tolerance, and FS-2 and Br-8, each containing a mutation in Als1 also conferring imidazolinone herbicide tolerance. Krichauff and Brookton are the wheat varieties from which K-42 and Br-8, respectively, were derived. Lines derived from the K-42/FS-2 cross were tolerant to rates of up to six times that required for economic weed control in the field. One line derived from the K-42/Br-8 cross was evaluated in the greenhouse for tolerance to 40 and 120 grams/hectare of irnazamox. Injury was scored on a 0-9 scale, 0 representing no injury and 9 representing plant death.

[3] = system: AHAS extracted from wild type and tolerant wheat plants; test: In vitro AHAS enzyme activity in the presence of imidazolinone herbicide; type: biochemical, Triticum aestivum
Excerpt: Because the tolerance in K-42 and Br-8 is due to a mutation in the AHAS enzyme rendering it resistant to inhibition by imidazolinone herbicides, the in vitro activity of AHAS extracted from wild type plants (not having the mutation for tolerance) can be compared to the in vitro activity of AHAS extracted from tolerant plants in the presence of varying concentrations of an imidazolinone herbicide. K-42 was compared to the wild type variety Krichauff, and Br-8 was compared to the wild type variety Brookton. […] As explained in Example 2, the in vitro AHAS enzyme activity can be compared among lines with and without a mutation conferring resistance to inhibition by imidazolinone herbicides. […]

| SMILES | Herbicide tolerance of M2-derived lines K-42 and Br-8 [1] | Resistance and injury of K-42 and BR-8 relative to wild type counterparts (FIG. 4) ([2]; 2-3 leaf stage, 14 and 21 days after treatment) | Tolerance and injury of the line derived from the K-42/Br-8 cross (FIG. 6) ([2]; injury 0-9 scale) | Residual uninhibited AHAS in Br-8 and K-42 ([3]; 100 μM imazamox) | Uninhibited AHAS enzyme activity with increasing herbicide concentration (FIG. 5) ([3]; wild type Krichauff and Brookton versus K-42 and Br-8) | Percent uninhibited AHAS activity in the Br-8/K-42 combination (FIG. 7) ([3]; four highest herbicide concentrations, compared with Br-8, K-42 and wild type) |
| --- | --- | --- | --- | --- | --- | --- |
| COCc1cnc(C2=NC(C)(C(C)C)C(=O)N2)c(C(=O)O)c1 (stereo not drawn) [imazamox] | identified as tolerant to imazamox | increased resistance and decreased injury | greatly enhanced tolerance at both 40 and 120 g/ha with very little injury | sufficient to provide a herbicide tolerant response | decreased faster in wild type lines than in either Br-8 or K-42 | – |
| CCc1cnc(C2=NC(C)(C(C)C)C(=O)N2)c(C(=O)O)c1 (stereo not drawn) [imazethapyr] | – | – | – | – | – | increase in percent uninhibited AHAS activity |
